This experiment deals with A2780 cells. Description: Expression of the isolated cDNA fragment (differential display, RT-PCR) in A2780 cells treated with cytotoxic agents. In kind it is cell-based, human. As to conditions: for expression of the cDNA fragment: A2780 cells after treatment with the compound. As for the experimental part:
Human ovary carcinoma A2780 cells were treated for 1 hour with an antitumor derivative of distamycin-A at its 50% growth-inhibiting concentration; at the end of the treatment and after 6 and 24 hours the total RNA was isolated by column extraction (SVTotal RNA, Promega Italia) and reverse-transcribed using poly-T primers as indicated in the differential-display kit (GenHunter). The fragments thus obtained were separated on denaturing polyacrylamide gel and detected by autoradiography. The bands whose intensity differed from controls were isolated and purified. One of them (fragment 1), after purification and ^32P-labeling (rediprime kit, Amersham), was used as probe in Northern Blot experiments. The RNA from the same cells was separated on agarose gel, transferred onto nylon membrane and hybridized with the probe.
Cells A2780 were treated with taxol and cisplatin (DDP) and the RNA was extracted before and 24 hours after the treatment. […] A fragment of beta-actin gene was used as internal control.

Take `N.N.[Cl][Pt][Cl]` [cisplatin]: the “expression of the cDNA fragment” value is “increased production of the same fragment”. Also, the “specific mRNA band by RT-PCR versus control cells” value (A2780 cells, RNA 24 hours after treatment, beta-actin internal control) is recorded as “more intense than that of control cells”. For the compound `O=c1[nH]cc(F)c(=O)[nH]1` [fluorouracil], the “expression of the cDNA fragment” value is “increased production of the same fragment”.

Consider `COc1cccc2c1C(=O)c1c(O)c3c(c(O)c1C2=O)C[C@@](O)(C(=O)CO)C[C@@H]3O[C@H]1C[C@H](N)[C@H](O)[C@H](C)O1` [doxorubicin], for which the “expression of the cDNA fragment” value is “increased production of the same fragment”.

For the compound `CC(=O)O[C@H]1C(=O)[C@@]2(C)[C@H]([C@H](OC(=O)c3ccccc3)[C@]3(O)C[C@H](OC(=O)[C@H](O)[C@@H](NC(=O)c4ccccc4)c4ccccc4)C(C)=C1C3(C)C)[C@]1(OC(C)=O)CO[C@@H]1C[C@@H]2O` [taxol], the “expression of the cDNA fragment” value is on record as “increased production of the same fragment”.

(Values after patent publication US7189840B2, “Oncosuppressive gene” (Novuspharma S.p.A., priority 2001, dated 2007).)
